Results reported in the NIST ThermoML archive (doi:10.1016/j.tca.2015.08.013).
Numbers after ± are expanded uncertainties.

Settings: for surface tension liquid-gas: Drop volume; for mass density / kinematic viscosity / speed of sound / vapor or sublimation pressure: Liquid; for mass density: Vibrating tube method; for kinematic viscosity / speed of sound: 101.33 kPa; for kinematic viscosity: Capillary tube (Ostwald / Ubbelohde) method; for speed of sound: Sing-around technique in a fixed-path interferometer; for vapor or sublimation pressure: Ebulliometric method (Recirculating still)

c1ccoc1 [furan]
Settings	kinematic viscosity [m2/s]	speed of sound [m/s]	surface tension liquid-gas [mN/m]	vapor or sublimation pressure [kPa]
278.15 K	4.59e-07 ± 9.9e-09	1228.1 ± 1.5	26.03 ± 0.23	–
280.65 K	4.48e-07 ± 9.7e-09	1216.2 ± 1.5	25.69 ± 0.23	–
283.15 K	4.39e-07 ± 9.5e-09	1204.5 ± 1.5	25.32 ± 0.23	–
284.4 K	–	–	–	45.59 ± 0.21
285.65 K	4.3e-07 ± 9.3e-09	1192.8 ± 1.5	24.97 ± 0.23	–
285.86 K	–	–	–	48.66 ± 0.21
287.16 K	–	–	–	51.63 ± 0.21
288.15 K	4.2e-07 ± 9.1e-09	1181 ± 1.5	24.59 ± 0.22	–
288.34 K	–	–	–	54.23 ± 0.21
289.2 K	–	–	–	56.05 ± 0.21
290.4 K	–	–	–	59.18 ± 0.21
290.65 K	4.09e-07 ± 8.9e-09	1169.2 ± 1.5	24.18 ± 0.22	–
291.7 K	–	–	–	62.26 ± 0.21
292.2 K	–	–	–	63.6 ± 0.21
292.79 K	–	–	–	64.53 ± 0.22
293.15 K	3.99e-07 ± 8.6e-09	1157.4 ± 1.5	23.79 ± 0.22	–
294.55 K	–	–	–	69.25 ± 0.22
295.55 K	–	–	–	72.4 ± 0.22
295.65 K	3.89e-07 ± 8.4e-09	1145.3 ± 1.5	23.35 ± 0.22	–
296.9 K	–	–	–	76.25 ± 0.22
297.36 K	–	–	–	77.63 ± 0.22
298.15 K	3.79e-07 ± 8.2e-09	1133.1 ± 1.5	22.94 ± 0.21	–
298.44 K	–	–	–	80.9 ± 0.23
299.63 K	–	–	–	84.59 ± 0.23
300.65 K	3.7e-07 ± 8e-09	1120.9 ± 1.5	22.55 ± 0.21	–
300.76 K	–	–	–	88.22 ± 0.23
301.52 K	–	–	–	90.81 ± 0.23
302.4 K	–	–	–	93.89 ± 0.23
303.15 K	3.61e-07 ± 7.8e-09	1108.8 ± 1.5	22.08 ± 0.21	–
303.86 K	–	–	–	99.07 ± 0.23
304.46 K	–	–	–	101.33 ± 0.24

Settings	mass density [kg/m3]
278.15 K, 99 kPa	959.086 ± 0.23
280.65 K, 99 kPa	955.729 ± 0.23
283.15 K, 99 kPa	952.358 ± 0.23
283.15 K, 100 kPa	952.36 ± 0.29
283.15 K, 2500 kPa	954.38 ± 0.29
283.15 K, 5000 kPa	956.94 ± 0.3
283.15 K, 7500 kPa	959.39 ± 0.3
283.15 K, 10000 kPa	961.81 ± 0.3
283.15 K, 20000 kPa	970.97 ± 0.31
283.15 K, 30000 kPa	979.35 ± 0.31
283.15 K, 40000 kPa	987.2 ± 0.3
283.15 K, 50000 kPa	994.5 ± 0.3
283.15 K, 60000 kPa	1001.42 ± 0.29
285.65 K, 99 kPa	948.976 ± 0.23
288.15 K, 99 kPa	945.579 ± 0.23
288.15 K, 100 kPa	945.58 ± 0.29
288.15 K, 2500 kPa	947.81 ± 0.29
288.15 K, 5000 kPa	950.42 ± 0.3
288.15 K, 7500 kPa	953.03 ± 0.3
288.15 K, 10000 kPa	955.59 ± 0.3
288.15 K, 20000 kPa	965.03 ± 0.31
288.15 K, 30000 kPa	973.69 ± 0.31
288.15 K, 40000 kPa	981.69 ± 0.31
288.15 K, 50000 kPa	989.18 ± 0.3
288.15 K, 60000 kPa	996.21 ± 0.3
290.65 K, 99 kPa	942.167 ± 0.23
293.15 K, 99 kPa	938.739 ± 0.23
293.15 K, 100 kPa	938.74 ± 0.29
293.15 K, 2500 kPa	940.99 ± 0.29
293.15 K, 5000 kPa	943.7 ± 0.3
293.15 K, 7500 kPa	946.38 ± 0.3
293.15 K, 10000 kPa	948.97 ± 0.3
293.15 K, 20000 kPa	958.75 ± 0.31
293.15 K, 30000 kPa	967.71 ± 0.32
293.15 K, 40000 kPa	976.04 ± 0.32
293.15 K, 50000 kPa	983.77 ± 0.31
293.15 K, 60000 kPa	990.98 ± 0.3
295.65 K, 99 kPa	935.294 ± 0.23
298.15 K, 99 kPa	931.835 ± 0.23
298.15 K, 100 kPa	931.84 ± 0.29
298.15 K, 2500 kPa	934.31 ± 0.29
298.15 K, 5000 kPa	937.14 ± 0.3
298.15 K, 7500 kPa	939.92 ± 0.3
298.15 K, 10000 kPa	942.68 ± 0.31
298.15 K, 20000 kPa	952.79 ± 0.32
298.15 K, 30000 kPa	961.99 ± 0.32
298.15 K, 40000 kPa	970.53 ± 0.32
298.15 K, 50000 kPa	978.42 ± 0.32
298.15 K, 60000 kPa	985.81 ± 0.31
300.65 K, 99 kPa	928.357 ± 0.23
303.15 K, 99 kPa	924.861 ± 0.23
303.15 K, 100 kPa	924.86 ± 0.29
303.15 K, 2500 kPa	927.4 ± 0.3
303.15 K, 5000 kPa	930.33 ± 0.3
303.15 K, 7500 kPa	933.21 ± 0.3
303.15 K, 10000 kPa	936 ± 0.31
303.15 K, 20000 kPa	946.46 ± 0.32
303.15 K, 30000 kPa	956.04 ± 0.33
303.15 K, 40000 kPa	964.82 ± 0.33
303.15 K, 50000 kPa	972.99 ± 0.33
303.15 K, 60000 kPa	980.62 ± 0.32
308.15 K, 2500 kPa	920.6 ± 0.3
308.15 K, 5000 kPa	923.71 ± 0.3
308.15 K, 7500 kPa	926.73 ± 0.31
308.15 K, 10000 kPa	929.66 ± 0.31
308.15 K, 20000 kPa	940.5 ± 0.32
308.15 K, 30000 kPa	950.3 ± 0.33
308.15 K, 40000 kPa	959.34 ± 0.33
308.15 K, 50000 kPa	967.69 ± 0.33
308.15 K, 60000 kPa	975.44 ± 0.33
313.15 K, 2500 kPa	913.48 ± 0.3
313.15 K, 5000 kPa	916.68 ± 0.3
313.15 K, 7500 kPa	919.8 ± 0.31
313.15 K, 10000 kPa	922.81 ± 0.31
313.15 K, 20000 kPa	934.04 ± 0.33
313.15 K, 30000 kPa	944.27 ± 0.34
313.15 K, 40000 kPa	953.57 ± 0.34
313.15 K, 50000 kPa	962.21 ± 0.34
313.15 K, 60000 kPa	970.23 ± 0.34
318.15 K, 2500 kPa	906.59 ± 0.3
318.15 K, 5000 kPa	909.88 ± 0.3
318.15 K, 7500 kPa	913.18 ± 0.31
318.15 K, 10000 kPa	916.44 ± 0.31
318.15 K, 20000 kPa	928.06 ± 0.33
318.15 K, 30000 kPa	938.56 ± 0.34
318.15 K, 40000 kPa	948.09 ± 0.35
318.15 K, 50000 kPa	956.88 ± 0.35
318.15 K, 60000 kPa	965.06 ± 0.35
323.15 K, 2500 kPa	899.25 ± 0.3
323.15 K, 5000 kPa	902.71 ± 0.3
323.15 K, 7500 kPa	906.1 ± 0.31
323.15 K, 10000 kPa	909.42 ± 0.32
323.15 K, 20000 kPa	921.53 ± 0.33
323.15 K, 30000 kPa	932.47 ± 0.35
323.15 K, 40000 kPa	942.39 ± 0.35
323.15 K, 50000 kPa	951.44 ± 0.36
323.15 K, 60000 kPa	959.86 ± 0.36
328.15 K, 2500 kPa	892.18 ± 0.3
328.15 K, 5000 kPa	895.9 ± 0.31
328.15 K, 7500 kPa	899.49 ± 0.31
328.15 K, 10000 kPa	902.97 ± 0.32
328.15 K, 20000 kPa	915.52 ± 0.34
328.15 K, 30000 kPa	926.72 ± 0.35
328.15 K, 40000 kPa	936.8 ± 0.36
328.15 K, 50000 kPa	946.08 ± 0.36
328.15 K, 60000 kPa	954.71 ± 0.37
333.15 K, 2500 kPa	884.69 ± 0.3
333.15 K, 5000 kPa	888.51 ± 0.31
333.15 K, 7500 kPa	892.17 ± 0.31
333.15 K, 10000 kPa	895.74 ± 0.32
333.15 K, 20000 kPa	908.84 ± 0.34
333.15 K, 30000 kPa	920.52 ± 0.36
333.15 K, 40000 kPa	931.04 ± 0.37
333.15 K, 50000 kPa	940.62 ± 0.37
333.15 K, 60000 kPa	949.48 ± 0.37
338.15 K, 2500 kPa	877.34 ± 0.3
338.15 K, 5000 kPa	881.44 ± 0.31
338.15 K, 7500 kPa	885.37 ± 0.31
338.15 K, 10000 kPa	889.16 ± 0.32
338.15 K, 20000 kPa	902.71 ± 0.34
338.15 K, 30000 kPa	914.72 ± 0.36
338.15 K, 40000 kPa	925.5 ± 0.37
338.15 K, 50000 kPa	935.32 ± 0.38
338.15 K, 60000 kPa	944.34 ± 0.38
